Assay results taken from patent US20240408152A1, “NOVEL ENTEROCOCCUS FAECIUM LCM001 STRAIN, AND USE THEREOF” (MBIOMETHERAPEUTICS CO., LTD., priority 2021, published 2024).
In brackets after ≈: the same amount, converted by molar mass. Read-outs that look alike come from different tables or passages of the source.

System: human non-small cell lung cancer (NSCLC) A549 cells
Experiment: MTT cell viability assay, lung cancer cells
Format: cell-based
Procedure: The human non-small cell lung cancer (NSCLC) A549 cells were cultured in RPMI 1640 culture medium supplemented with 10% fetal bovine serum (FBS) and 1% penicillin/streptomycin in a incubator at 37° C. in a 5% CO2. Human normal fibroblast lung cell Wi38 were cultured in MEM culture medium supplemented with 10% FBS and 1% penicillin/streptomycin.
The cell viability rate was measured using MTT [3-(4,5-dimethylthiazol-2-yl)-2,5-diphenyl-tetrazolium bromide] assay. Specifically, lung cancer cells (A549, 7×10^3 cells/well), colon cancer cells (HCT-15, 5×10^3 cells/well), liver cancer cells (Sk-hep-1, 5×10^3 cells/well), pancreatic cancer cells (PANC-1, 5×10^3 cells/well), and breast cancer cells (MCF-7, 2×10^3 cells/well) were seeded in a 96-well culture plate at 3 times repeatedly, and cultured overnight at 37° C. in 5% CO2 with RPMI 1640 medium containing 10% FBS. Subsequently, the cell-free supernatant was added to each well at concentrations of 1×, 2×, 5×, and 10×, with 100 μL per well, and cultured for 24 hours at 37° C. in 5% CO2.
To assess cell apoptosis, MTT reagent at a concentration of 5 mg/ml was added to each well with 10 μL per well and reacted for 4 hours at 37° C. in 5% CO2. The cells were then dissolved in dimethyl sulfoxide (DMSO, 100 μL/well), and the absorbance at 570 nm was measured using a microplate reader.
The cell viability rate was calculated as a percentage using the following formula. The cell toxicity test was conducted in triplicate, and the values are presented as mean±standard deviation.
To confirm the efficacy of Cyclo(L-pro-L-tyr), the active ingredient of Enterococcus faecium LCM001, as well as its derivatives on apoptosis of non-small cell lung cancer A549 cells, the inventors conducted an MTT assay on Cyclo(L-pro-L-tyr), Cyclo(L-Phe-L-pro), Cyclo(L-Phe-trans-4-hydroxy-L-Pro), Cyclo(L-Pro-D-Phe), and Cyclo(Tyr-Hpro), and calculated their IC50 values.

Structure (SMILES) | IC50 [µg/mL] | IC50 (Homo sapiens, read-out: IC50) [µg/mL]
O=C1N[C@@H](Cc2ccccc2)C(=O)N2C[C@H](O)C[C@@H]12 (relative stereo) [Cyclo(L-Phe-trans-4-hydroxy-L-Pro)] | 57.58 (≈ 221 µM) | –
O=C1N[C@@H](Cc2ccccc2)C(=O)N2CCC[C@@H]12 [Cyclo(L-Phe-L-pro)] | 26.1 (≈ 107 µM) | –
O=C1NC(Cc2ccccc2)C(=O)N2CCCC12 [Cyclo(L-Pro-D-Phe)] | 94.56 (≈ 387 µM) | –
O=C1NC(Cc2ccc(O)cc2)C(=O)N2CCC[C@@H]12 (stereo partly drawn) [Cyclo(L-pro-L-tyr), Cyclo(L-Pro-L-Tyr)] | – | 99.6 (≈ 382 µM)
O=C1NC(Cc2ccc(O)cc2)C(=O)N2CC(O)CC12 (centres unmarked) [Cyclo(Tyr-Hpro)] | 119 (≈ 431 µM) | –
